ChEMBL document CHEMBL1201862, “PubChem BioAssay data set” (2004)
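A five-concentration, 48-hour dose response in 96-well plates underlies each endpoint, interpolated linearly between surrounding concentrations. Here, GI50 denotes the concentration required for 50% inhibition of growth.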 Calls of active or inactive are those of the source. Rule as the data show it: active = GI50 up to about 1.1 µM and inactive = higher.

Experiments:
Assay in all cases: DTP human tumour cell line panel, 48 h
786-0 = tested on: 786-0
A549 = tested on: A549
CAKI-1 = tested on: CAKI-1
HL-60 = tested on: HL-60
HOP-92 = tested on: HOP-92
Hs-578T = tested on: Hs-578T
IGROV-1 = tested on: IGROV-1
K562 = tested on: K562
M14 = tested on: M14
MDA-MB-435 = tested on: MDA-MB-435
MDA-N = tested on: MDA-N
NCI-H226 = tested on: NCI-H226
SF-295 = tested on: SF-295
SF-539 = tested on: SF-539
SK-MEL-2 = tested on: SK-MEL-2
SN12C = tested on: SN12C
SNB-19 = tested on: SNB-19
SNB-75 = tested on: SNB-75
SR = tested on: SR
T47D = tested on: T47D

SMILES	GI50 (786-0)	GI50 (A549)	GI50 (CAKI-1)	GI50 (HL-60)	GI50 (HOP-92)	GI50 (Hs-578T)	GI50 (IGROV-1)	GI50 (K562)	GI50 (M14)	GI50 (MDA-MB-435)	GI50 (MDA-N)	GI50 (NCI-H226)	GI50 (SF-295)	GI50 (SF-539)	GI50 (SK-MEL-2)	GI50 (SN12C)	GI50 (SNB-19)	GI50 (SNB-75)	GI50 (SR)	GI50 (T47D)
Clc1ccc(CCNC2(c3cc4ccccc4s3)CCCCC2)cc1Cl	18.1 µM (inactive)	47.8 µM (inactive)	29.5 µM (inactive)	16.7 µM (inactive)	3.84 µM (inactive)	42.5 µM (inactive)	40.8 µM (inactive)	15.5 µM (inactive)	23.8 µM (inactive)	41.4 µM (inactive)	32.3 µM (inactive)	17.3 µM (inactive)	28.7 µM (inactive)	16.9 µM (inactive)	19 µM (inactive)	33.7 µM (inactive)	30.5 µM (inactive)	14.2 µM (inactive)	11.9 µM (inactive)	20.2 µM (inactive)
c1ccc2/c3[nH]/c(c2c1)=N\c1ccc(cc1)-c1nc2ccc(cc2o1)/N=c1/[nH]/c(c2ccccc12)=N/c1ccc2nc(oc2c1)-c1ccc(cc1)\N=3	31 µM (inactive)	26.8 µM (inactive)	35.4 µM (inactive)	0.422 µM (active)	37.3 µM (inactive)	> 100 µM (inactive)	47.2 µM (inactive)	15.8 µM (inactive)	53.8 µM (inactive)	27.6 µM (inactive)	27.4 µM (inactive)	68.2 µM (inactive)	31 µM (inactive)	77.1 µM (inactive)	38.8 µM (inactive)	20.9 µM (inactive)	26.1 µM (inactive)	> 100 µM (inactive)	20.3 µM (inactive)	25.2 µM (inactive)
NS(=O)(=O)c1ccc(NC(=O)Nc2ccccc2F)cc1	> 100 µM (inactive)	> 100 µM (inactive)	> 100 µM (inactive)	> 100 µM (inactive)	> 100 µM (inactive)	> 100 µM (inactive)	> 100 µM (inactive)	> 100 µM (inactive)	82.4 µM (inactive)	> 100 µM (inactive)	> 100 µM (inactive)	> 100 µM (inactive)	0.243 µM (active)	> 100 µM (inactive)	> 100 µM (inactive)	> 100 µM (inactive)	> 100 µM (inactive)	> 100 µM (inactive)	> 100 µM (inactive)	52.5 µM (inactive)
C=C1c2nc3ccccc3n2C=C(c2ccc(C)cc2)N1c1ccc(C)cc1	78.3 µM (inactive)	52.6 µM (inactive)	> 100 µM (inactive)	10.5 µM (inactive)	68.5 µM (inactive)	> 100 µM (inactive)	> 67.1 µM (inactive)	19.9 µM (inactive)	56.1 µM (inactive)	11.6 µM (inactive)	20.6 µM (inactive)	7.08 µM (inactive)	50.9 µM (inactive)	> 48.1 µM (inactive)	47.5 µM (inactive)	> 100 µM (inactive)	> 100 µM (inactive)	> 100 µM (inactive)	11.5 µM (inactive)	> 100 µM (inactive)
CCC/N=C/c1c(O)c(O)c(C(C)C)c2cc(C)c(-c3c(C)cc4c(C(C)C)c(O)c(O)c(/C=N/CCC)c4c3O)c(O)c12	10.2 µM (inactive)	8.05 µM (inactive)	25.8 µM (inactive)	3.01 µM (inactive)	2.49 µM (inactive)	69.3 µM (inactive)	11.1 µM (inactive)	2.96 µM (inactive)	7.41 µM (inactive)	10.7 µM (inactive)	8.63 µM (inactive)	14.6 µM (inactive)	3.77 µM (inactive)	5.65 µM (inactive)	2.76 µM (inactive)	10.4 µM (inactive)	6.47 µM (inactive)	8.79 µM (inactive)	3.46 µM (inactive)	7.74 µM (inactive)
c1c[nH]c(CN2CCOCC2)n1	> 100 µM (inactive)	> 100 µM (inactive)	> 100 µM (inactive)	> 100 µM (inactive)	> 100 µM (inactive)	> 100 µM (inactive)	> 100 µM (inactive)	> 100 µM (inactive)	> 100 µM (inactive)	> 100 µM (inactive)	> 100 µM (inactive)	> 100 µM (inactive)	> 100 µM (inactive)	> 100 µM (inactive)	> 100 µM (inactive)	> 100 µM (inactive)	> 100 µM (inactive)	> 100 µM (inactive)	> 100 µM (inactive)	> 100 µM (inactive)
CC(C)=CCC[C@](C)(O[C@@H]1O[C@H](CO)[C@@H](O)[C@H](O)[C@H]1O)[C@H]1CC[C@]2(C)[C@@H]1[C@H](O)C[C@@H]1[C@@]3(C)CC[C@H](O)C(C)(C)[C@@H]3[C@@H](O[C@@H]3O[C@H](CO)[C@@H](O)[C@H](O)[C@H]3O[C@@H]3O[C@@H](C)[C@H](O)[C@@H](O)[C@H]3O)C[C@]12C.CC(C)=CCC[C@](C)(O[C@@H]1O[C@H](CO)[C@@H](O)[C@H](O)[C@H]1O)[C@H]1CC[C@]2(C)[C@@H]1[C@H](O)C[C@@H]1[C@@]3(C)CC[C@H](O)C(C)(C)[C@@H]3[C@@H](O[C@@H]3O[C@H](CO)[C@@H](O)[C@H](O)[C@H]3O[C@@H]3O[C@H](CO)[C@@H](O)[C@H](O)[C@H]3O)C[C@]12C	> 75 µM (inactive)	> 75 µM (inactive)	> 75 µM (inactive)	> 75 µM (inactive)	> 75 µM (inactive)	51.3 µM (inactive)	> 75 µM (inactive)	> 75 µM (inactive)	> 75 µM (inactive)	> 75 µM (inactive)	> 75 µM (inactive)	> 75 µM (inactive)	60.3 µM (inactive)	> 75 µM (inactive)	> 75 µM (inactive)	> 75 µM (inactive)	> 75 µM (inactive)	> 75 µM (inactive)	29.2 µM (inactive)	> 75 µM (inactive)
COc1ccc(/C(Cl)=C(\C=O)c2ccc([N+](=O)[O-])cc2)cc1OC	4.29 µM (inactive)	24.7 µM (inactive)	9.08 µM (inactive)	2.7 µM (inactive)	7.28 µM (inactive)	5.69 µM (inactive)	17.3 µM (inactive)	3.62 µM (inactive)	7.28 µM (inactive)	3.24 µM (inactive)	3.25 µM (inactive)	11.4 µM (inactive)	13.4 µM (inactive)	12.5 µM (inactive)	21 µM (inactive)	5.73 µM (inactive)	> 46.5 µM (inactive)	3.62 µM (inactive)	3.03 µM (inactive)	6.9 µM (inactive)
O=C(O)c1ccc(CI)cc1	3.24 µM (inactive)	17.6 µM (inactive)	13.7 µM (inactive)	20.8 µM (inactive)	15.8 µM (inactive)	41 µM (inactive)	21.1 µM (inactive)	23.7 µM (inactive)	17.4 µM (inactive)	17.4 µM (inactive)	15.5 µM (inactive)	22.2 µM (inactive)	7.82 µM (inactive)	18 µM (inactive)	17.9 µM (inactive)	17 µM (inactive)	13.8 µM (inactive)	33.2 µM (inactive)	21.6 µM (inactive)	25 µM (inactive)
